# Measured values published in US20250290915A1, “METHOD FOR PREDICTING RESPONSIVENESS TO THERAPY” (CANCERTAIN LIMITED, priority 2022, published 2025).
# Assays:
# Format in all cases: cell-based, human
# [1] = tested on: Circulating Tumour Cells (CTCs) from a patient with head and neck cancer (squamous cell carcinoma); test: Drug response score assay on CTCs from blood, Example 6
# Description: (§1) CD45^+ cells and circulating tumour cells (CTCs) were isolated from a blood sample provided by each subject.
# (§2) CD45 separation was performed by adding human CD45 microbeads (50 μl/ml blood), incubating for 15 minutes at 4° C. and then processing using an AutoMACS machine. This separates the blood sample into CD45^+ and CD45^−cells in 2 separate falcons. The falcon tubes are then centrifuged at 1200 rpm for 5 minutes.
# (§3) The supernatant was removed from the CD45^−falcon tube, and the CD45^−cells contacted with 100 μl of FcR block and 100 μl of CD326 (EpCAM) MicroBeads, followed by incubation at […] 4° C. for 30 minutes. The CD45^−cells were then processed using an AutoMACS machine to separate the EpCAM positive and negative cells into 2 separate falcon tubes. The EpCAM-cells were discarded. The supernatant was removed from the EpCAM^+ cells, and the cells resuspended in DMEM with 2 μl Cell Tox, 2 μl MT and 2 μl MT. 20 μl of the resuspended pellet was then added to all sample wells excluding a blank. After all wells are added to, a cell count was conducted on the […] to determine the number of circulating tumour cells (CTCs).
# (§4) The different cell types were each divided equally into populations, depending on the number of drugs/concentrations to be tested and plated on a cell-culture plate pre-coated with a scaffold of polycaprolactone (PCL) electrospun fibres and incubated at 37° C., 5% CO2, for 5 to (typically 10) minutes to facilitate cell attachment. After attachment, an initial imaging step was carried out using the RealTime-Glo™ MT assay from Promega (Catalogue No. G9711)) and the CellTox™ Green Cytotoxicity Assay (Promega, Catalogue No. G8741), carried out according to manufacturer's instructions. Following this initial imagining, the immunotherapeutic and/or chemotherapeutic agents were added to the cell populations as indicated below. After 10 minutes, the imagining step was repeated. The cell populations were then incubated at 37° C., 5% CO2 for 48 hours. The imaging step was then repeated. The cell populations were then re-dosed with the same immunotherapeutic and/or chemotherapeutic agents as indicated below, and incubated at 37° C., 5% CO2 for a further 48 hours. After this second 48 hour incubation, the imagining step was repeated for a final time.
# (§5) At the end of this culture period, dose response scores were calculated using a normalized drug response metric as described in Gupta et al. (Communications Biology volume 3, Article number: 42 (2020), https://doi.org/10.1038/s42003-020-0765-z). The start readout for a given immunotherapeutic or chemotherapeutic agent at a given concentration was the to readout for said immunotherapeutic or chemotherapeutic agent at a specified concentration. The end readout for a given immunotherapeutic or chemotherapeutic agent at a given concentration was the final timepoint reading (t96h) for said immunotherapeutic or chemotherapeutic agent at a specified concentration.
# (§6) The positive control start readout for a given drug/concentration was the to readout for the corresponding drug at a specified concentration. The positive control end readout for the corresponding drug at a specified concentration was the final timepoint reading (t96h) for the corresponding blank well.
# (§7) The negative control start and end readouts for a given immunotherapeutic or chemotherapeutic agent at a given concentration were the to and final timepoint reading (t96h) respectively for blank cell or blank immuno cell well respectively.
# (§8) The sensitivity or resistance of a subject's cancer to a given immunotherapeutic or chemotherapeutic agent was determined based on the calculated drug response score as shown in Table 2.
# Blood samples from a patient with head and neck cancer (squamous cell carcinoma) were received on 11 Mar. 2022 and tested using a 7 drug panel.
# [2] = tested on: Circulating Tumour Cells (CTCs) from a patient with colon cancer (sigmoid colon cancer); test: Drug response score assay on CTCs from blood, Example 8; set-up: key to Drug response score, conc. 1 / Drug response score, conc. 2 / Drug response score, conc. 3 / Drug response score, conc. 4: normalized drug response metric (Gupta et al. 2020); settings: for Drug response score, conc. 1: conc. 1 of each drug as in Table 24; for Drug response score, conc. 1 / Drug response score, conc. 2 / Drug response score, conc. 3 / Drug response score, conc. 4: CTCs, t96h; for Drug response score, conc. 2: conc. 2 of each drug as in Table 24; for Drug response score, conc. 3: conc. 3 of each drug as in Table 24; for Drug response score, conc. 4: conc. 4 of each drug as in Table 24; for Drug sensitivity as calculated by the assay (interpretation of Drug Response Scores): Table 26
# Description: as §1, §2, §3
# as §4, with “After” for “The different cell types were each divided equally into populations, depending on the number of drugs/concentrations to be tested and plated on a cell-culture plate pre-coated with a scaffold of polycaprolactone (PCL) electrospun fibres and incubated at 37° C., 5% CO2, for 5 to (typically 10) minutes to facilitate cell attachment. After”
# as §5, §6, §7, §8
# Blood samples from a patient with colon cancer (sigmoid colon cancer) were received on 8 Mar. 2022 and tested using a 9 drug panel.
# Chemotherapeutic agents were tested as in Table 24.
# [3] = tested on: Circulating tumour cells (CTCs) from a patient with GI cancer (Cholangio Carcinoma, stage 4); test: Drug response score assay on blood sample, Example 9; set-up: key to Drug response score from blood sample, conc. 1 / Drug response score from blood sample, conc. 2 / Drug response score from blood sample, conc. 3 / Drug response score from blood sample, conc. 4: normalized drug response metric per Gupta et al. 2020; settings: for effectiveness on Circulating Tumour Cells under laboratory conditions: GI cancer (Cholangio Carcinoma) blood sample; for Drug response score from blood sample, conc. 1: conc. 1 of each drug as in Table 27; for Drug response score from blood sample, conc. 1 / Drug response score from blood sample, conc. 2 / Drug response score from blood sample, conc. 3 / Drug response score from blood sample, conc. 4: t96h; for Drug response score from blood sample, conc. 2: conc. 2 of each drug as in Table 27; for Drug response score from blood sample, conc. 3: conc. 3 of each drug as in Table 27; for Drug response score from blood sample, conc. 4: conc. 4 of each drug as in Table 27; for Drug sensitivity as calculated by the assay, Blood: interpretation based on Drug Response Scores; for Drug response score from blood sample, conc. 1 / Drug response score from blood sample, conc. 2 / Drug response score from blood sample, conc. 3 / Drug response score from blood sample, conc. 4 / Drug sensitivity as calculated by the assay, Blood: blood sample
# Description: as §1, §2
# The supernatant was removed from the CD45^+falcon tube, and the cells resuspended in DMEM with 2 μl Cell Tox, 2 μl MT and 2 μl MT. 20 μl of the resuspended CD45^+ cells was then plated in each well which will contain an immunotherapy treatment.
# as §3, §4, §5, §6, §7
# The sensitivity or resistance of a subject's cancer to a given immunotherapeutic or chemotherapeutic agent was determined based on the calculated drug response score as shown in Table 2. […]
# [4] = tested on: Cancer Cells from tissue sample (CSCs, tumour marker+ cells) of a patient with GI cancer (Cholangio Carcinoma, stage 4); test: Drug response score assay on tissue sample, Example 9; settings: for effectiveness on Cancer Cells from tissue sample under laboratory conditions: GI cancer (Cholangio Carcinoma) tissue sample; for Drug sensitivity as calculated by the assay, Tissue: interpretation based on Drug Response Scores; for Drug sensitivity as calculated by the assay, Tissue / Drug response score, conc. 1 / Drug response score, conc. 2 / Drug response score, conc. 3 / Drug response score, conc. 4: tissue sample; for Drug response score, conc. 1: conc. 1 per Table 27B: Pem 20, Niv 20, Atez 100, Pacli 0.05, Irino 5, Beva 1 μg/ml, Len 50, 5-FU 250 ng/ml; for Drug response score, conc. 2: conc. 2 per Table 27B: Pem 40, Niv 40, Atez 200, Pacli 0.1, Irino 10, Beva 2 μg/ml, Len 100, 5-FU 500 ng/ml; for Drug response score, conc. 3: conc. 3 per Table 27B: Pem 100, Niv 80, Atez 400, Pacli 0.2, Irino 25, Beva 4 μg/ml, Len 200, 5-FU 1000 ng/ml; for Drug response score, conc. 4: conc. 4 per Table 27B: Pem 160, Niv 160, Atez 800, Pacli 1, Irino 50, Beva 8 μg/ml, Len 400, 5-FU 2000 ng/ml
# Description: Where a tissue sample was provided by each subject, cancer stem cells (CSCs, CD133^+), were isolated from said sample. Tumour marker cells were further isolated from each tissue sample. The remaining cells were designated tumour marker^+ cells.
# First, disaggregation of the tissue samples was carried out. Disaggregation was dependent on the size of the tissue sample and the method of retrieval: • EBUS (Endobronchial Ultrasound Scan and Biopsy)—very small fragments of tissue in solution-spun at 1200 rpm for 5 minutes to collect tissue pellet • Bronchoscopy-larger fragments with larger amount of blood vessels • Broncho-lavage-similar to EBUS, spun at 1200 rpm for 5 minutes to collet tissue pellet
# Once a pellet of tissue obtained, DMEM added to the tissue pellet and the material forced through a […] Smart strainer. Once a cell suspension was achieved, this was spun at 1200 rpm for 5 minutes and the supernatant removed. The cells were then resuspended to a volume of 60 μl.
# 20 μl of FcR block and 20 μl of CD133 microbeads were added to the resuspended cells, followed by incubation for 15 minutes at 4° C. The cells were then processed using an AutoMACS machine. This separates the […] into CD133^+ and CD133^− cells in 2 separate falcons. The falcon tubes are then centrifuged at 1200 rpm for 5 minutes.
# The supernatant was removed from the CD133+falcon tube, and the cells resuspended in DMEM with 2 μl Cell Tox, 2 μl MT and 2 μl MT. 20 μl of the resuspended […] was then plated in each well which will contain an immunotherapy treatment.
# The supernatant was removed from the CD133^− falcon tube, and the CD133^− cells contacted with 40 μl of a tumour separation microbeads cocktail containing microbeads bound to anti-CD31, anti-CD45, anti-Glycophorin-A (Gly-A) and an anti-fibroblast antibody.
# This cocktail is used to separate out tumour marker cells using MACS, by separating out CD31^+, CD45^+ and Gly-A^+ cells. In addition, anti-fibroblast antibody-labelled beads are also used. The cocktail is added to the CD133^− falcon tube, followed by incubation for 15 minutes at 4° C. MACS is carried out using an AutoMACS machine. This cells which are not bound by the CD31, CD45, Gly-A and anti-fibroblast antibody beads are the tumour marker^+ cells.
# as §4
# as §5, with “The end readout for a given immunotherapeutic or chemotherapeutic agent at a given concentration was the final timepoint reading (t96h) for said immunotherapeutic or chemotherapeutic agent at a specified concentration.” left out
compound,measurement,setting,value
CCCCCOC(=O)Nc1nc(=O)n([C@@H]2O[C@H](C)[C@@H](O)[C@H]2O)cc1F [Capecitabine],"Drug response score, conc. 1","[1]; conc. 1: Ifos 0.125 μg/ml, Gemcit 2 μg/ml, Doxo 10 ng/ml, Etop 1 μg/ml, Metho 0.5 μg/ml, Capecit 200 μg/ml, Vinor 20 μg/ml, CTCs, t96h",0.7820
same,"Drug response score, conc. 2","[1]; conc. 2: Ifos 0.25 μg/ml, Gemcit 10 μg/ml, Doxo 30 ng/ml, Etop 4 μg/ml, Metho 1 μg/ml, Capecit 300 μg/ml, Vinor 40 μg/ml, CTCs, t96h",0.9244
same,"Drug response score, conc. 3","[1]; conc. 3: Ifos 5 μg/ml, Gemcit 20 μg/ml, Doxo 90 ng/ml, Etop 20 μg/ml, Metho 2 μg/ml, Capecit 400 μg/ml, Vinor 80 μg/ml, CTCs, t96h",0.6113
same,"Drug response score, conc. 4","[1]; conc. 4: Ifos 10 μg/ml, Gemcit 40 μg/ml, Doxo 270 ng/ml, Etop 100 μg/ml, Metho 4 μg/ml, Capecit 600 μg/ml, Vinor 200 μg/ml, CTCs, t96h",1.0037
same,effectiveness on Circulating Tumour Cells under laboratory conditions,[1]; head and neck cancer CTCs,not effective
same,Drug sensitivity as calculated by the assay (interpretation of Drug Response Scores),"[1]; head and neck cancer CTCs, Table 20",Resistant
Cn1nnc2c(C(N)=O)ncn2c1=O [Temozolamide],"Drug response score, conc. 1",[2],−1.0000
same,"Drug response score, conc. 2",[2],0.0367
same,"Drug response score, conc. 3",[2],−0.1421
same,"Drug response score, conc. 4",[2],−0.4687
same,Drug sensitivity as calculated by the assay (interpretation of Drug Response Scores),[2]; sigmoid colon cancer CTCs,Sensitive (S++)
Atezolizumab,effectiveness on Circulating Tumour Cells under laboratory conditions,[3],S++
same,"Drug response score from blood sample, conc. 1",[3],0.1037
same,"Drug response score from blood sample, conc. 2",[3],0.1499
same,"Drug response score from blood sample, conc. 3",[3],0.3493
same,"Drug response score from blood sample, conc. 4",[3],0.4391
same,"Drug sensitivity as calculated by the assay, Blood",[3],S++
same,effectiveness on Cancer Cells from tissue sample under laboratory conditions,[4],S+
same,"Drug sensitivity as calculated by the assay, Tissue",[4],S+
same,"Drug response score, conc. 1",[4],0.8904
same,"Drug response score, conc. 2",[4],0.9047
same,"Drug response score, conc. 3",[4],0.8647
same,"Drug response score, conc. 4",[4],0.7954
O=c1[nH]cc(F)c(=O)[nH]1 [5 FluoroUracil],effectiveness on Circulating Tumour Cells under laboratory conditions,[3],S+
same,"Drug response score from blood sample, conc. 1",[3],0.4147
same,"Drug response score from blood sample, conc. 2",[3],0.341
same,"Drug response score from blood sample, conc. 3",[3],0.422
same,"Drug response score from blood sample, conc. 4",[3],0.08131
same,effectiveness on Cancer Cells from tissue sample under laboratory conditions,[4],S+
same,"Drug response score, conc. 1",[4],0.9334
same,"Drug response score, conc. 2",[4],0.9488
same,"Drug response score, conc. 3",[4],0.9924
same,"Drug response score, conc. 4",[4],0.01222
O=c1[nH]cc(F)c(=O)[nH]1 [5FU],"Drug sensitivity as calculated by the assay, Blood",[3],S+
same,"Drug sensitivity as calculated by the assay, Tissue",[4],S+
Bevacizumab,"Drug response score from blood sample, conc. 1",[3],0.4605
same,"Drug response score from blood sample, conc. 2",[3],1.257
same,"Drug response score from blood sample, conc. 3",[3],1.837
same,"Drug response score from blood sample, conc. 4",[3],2.21
same,"Drug response score, conc. 1",[4],0.93
same,"Drug response score, conc. 2",[4],0.9294
same,"Drug response score, conc. 3",[4],0.932
same,"Drug response score, conc. 4",[4],0.9261
Nc1nc2[nH]cc(CCc3ccc(C(=O)N[C@@H](CCC(=O)O)C(=O)O)cc3)c2c(=O)[nH]1 [Pemetrexed],"Drug response score, conc. 1",[2],5.1780
same,"Drug response score, conc. 2",[2],−1.0000
same,"Drug response score, conc. 3",[2],−1.0000
same,"Drug response score, conc. 4",[2],−1.0000
same,effectiveness on Circulating Tumour Cells under laboratory conditions,[2]; sigmoid colon cancer CTCs,S+++
same,Drug sensitivity as calculated by the assay (interpretation of Drug Response Scores),[2]; sigmoid colon cancer CTCs,Sensitive (S+++)
